Laboratory results published in ChEMBL document CHEMBL1132051, “4-Alkyl- and 3,4-dialkyl-1,2,3,4-tetrahydro-8-pyridono[5,6-g]quinolines: potent, nonsteroidal androgen receptor agonists” (Bioorg Med Chem Lett, 1999).

Legend:
Androgen receptor [1] = target: T1, Androgen receptor (Homo sapiens, UniProt P10275)
T1 sequence (P10275 whole entry): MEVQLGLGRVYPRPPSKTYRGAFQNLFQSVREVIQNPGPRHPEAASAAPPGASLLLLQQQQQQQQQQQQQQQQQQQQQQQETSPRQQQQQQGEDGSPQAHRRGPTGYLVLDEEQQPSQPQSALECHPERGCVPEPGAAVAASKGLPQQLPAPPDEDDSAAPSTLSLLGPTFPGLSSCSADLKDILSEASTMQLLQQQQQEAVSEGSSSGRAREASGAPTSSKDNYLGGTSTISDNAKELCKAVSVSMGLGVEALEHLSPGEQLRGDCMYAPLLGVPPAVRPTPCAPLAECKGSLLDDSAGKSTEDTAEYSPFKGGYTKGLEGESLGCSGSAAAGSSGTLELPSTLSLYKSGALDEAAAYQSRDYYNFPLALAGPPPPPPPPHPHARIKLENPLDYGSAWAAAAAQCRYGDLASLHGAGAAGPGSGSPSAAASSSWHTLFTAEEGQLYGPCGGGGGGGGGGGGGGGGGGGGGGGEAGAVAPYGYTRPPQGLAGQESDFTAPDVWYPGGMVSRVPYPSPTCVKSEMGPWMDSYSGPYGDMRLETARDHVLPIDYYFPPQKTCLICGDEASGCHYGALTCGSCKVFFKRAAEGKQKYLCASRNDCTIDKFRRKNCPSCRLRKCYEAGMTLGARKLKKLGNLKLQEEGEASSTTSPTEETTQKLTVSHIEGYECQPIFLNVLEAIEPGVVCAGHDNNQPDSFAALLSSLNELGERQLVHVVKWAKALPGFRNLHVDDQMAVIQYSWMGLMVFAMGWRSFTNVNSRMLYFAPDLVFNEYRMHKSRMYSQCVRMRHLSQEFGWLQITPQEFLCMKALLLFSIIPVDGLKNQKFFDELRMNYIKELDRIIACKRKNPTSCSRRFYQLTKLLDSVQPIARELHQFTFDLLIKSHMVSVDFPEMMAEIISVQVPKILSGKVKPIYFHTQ
Description: Agonist activity to the human androgen receptor (hAR) in CV-1 cells

Androgen receptor [2] = target: T1, Androgen receptor; remark: listed apart in the source
Description: Binding affinity to the human androgen receptor (hAR), using [3H]DHT as radioligand in a competitive binding assay

Androgen receptor [3] = target: T1, Androgen receptor; remark: listed apart in the source
Description: Antagonistic activity against human androgen receptor (hAR) in CV-1 cells using cotransfection assay

Androgen receptor [4] = target: T1, Androgen receptor; experiment: Antagonistic activity against human androgen receptor (hAR) in CV-1 cells was determined as a function of maximal inhibition of dihydrotestosterone using cotransfection assay; format: functional, cell-based

Row | Structure (SMILES) | EC50 (Androgen receptor [1]) | Ki (Androgen receptor [2]) | IC50 (Androgen receptor [3]) | IC50 (Androgen receptor [4])
1 | CCC1CCN(C)c2cc3[nH]c(=O)cc(C(F)(F)F)c3cc21 (stereo unspecified) | 158 nM | 630 nM | > 10000 nM | 
2 | O=c1cc(C(F)(F)F)c2cc3c(cc2[nH]1)NCCC3c1cc(C(F)(F)F)cc(C(F)(F)F)c1 (stereo unspecified) | > 10000 nM | > 1000 nM | 251 nM | 
3 | Oc1cc(C(F)(F)F)c2cc3c(cc2n1)NCCC3 | 317 nM | 19 nM | 12 nM | 
4 | CC[C@H]1c2cc3c(C(F)(F)F)cc(=O)[nH]c3cc2NC[C@H]1C (relative stereo) | 7 nM | 27 nM |  | > 10000 nM
5 | CCCC1CCNc2cc3nc(O)cc(C(F)(F)F)c3cc21 (stereo unspecified) | 19 nM | 29 nM | > 10000 nM | 
6 | Oc1cc(C(F)(F)F)c2cc3c(cc2n1)NC[C@@H]1CCCC[C@H]31 | 3 nM | 2 nM | > 10000 nM | 
7 | CCC1CCN(C=O)c2cc3nc(O)cc(C(F)(F)F)c3cc21 (stereo unspecified) | 137 nM | > 1000 nM |  | > 10000 nM
8 | CC(C)C1CCNc2cc3[nH]c(=O)cc(C(F)(F)F)c3cc21 (stereo unspecified) | 3 nM | 13 nM | > 10000 nM | 
9 | C[C@H]1CNc2cc3nc(O)cc(C(F)(F)F)c3cc2C1CCC(F)(F)F (stereo partly specified) | 13 nM | 2 nM |  | 61 nM
10 | Oc1cc(C(F)(F)F)c2cc3c(cc2n1)NC[C@H]1CCCC[C@H]31 | 2 nM | 15 nM |  | > 10000 nM
11 | CCC1CCNc2cc3c(cc21)c(C(F)(F)F)cc(=O)n3C (stereo unspecified) | > 10000 nM | 9 nM | 20 nM | 
12 | CCC1CCN(C)c2cc3c(cc21)c(C(F)(F)F)cc(=O)n3C (stereo unspecified) | > 10000 nM | 263 nM | 216 nM | 
13 | O=c1cc(C(F)(F)F)c2cc3c(cc2[nH]1)NC[C@@H]1CCC[C@H]31 | 9 nM | 8 nM | > 10000 nM | 
14 | C[C@@H]1CNc2cc3[nH]c(=O)cc(C(F)(F)F)c3cc2[C@@H]1CCC(F)(F)F | 82 nM | > 1000 nM | 63 nM | 
15 | CC(C)CC1CCNc2cc3nc(O)cc(C(F)(F)F)c3cc21 (stereo unspecified) | 25 nM | 22 nM |  | > 10000 nM
16 | CC(C)C[C@H]1c2cc3c(C(F)(F)F)cc(=O)[nH]c3cc2NC[C@@H]1C (relative stereo) | 56 nM | 72 nM | 29 nM | 
17 | CCC1(CC)CCNc2cc3nc(O)cc(C(F)(F)F)c3cc21 | > 10000 nM | 58 nM | 73 nM | 
18 | CC1(C)CCNc2cc3[nH]c(=O)cc(C(F)(F)F)c3cc21 | 68 nM | 12 nM | 16 nM | 
19 | CC1CCNc2cc3nc(O)cc(C(F)(F)F)c3cc21 (stereo unspecified) | 15 nM | 9 nM | 259 nM | 
20 | CC1c2cc3c(C(F)(F)F)cc(O)nc3cc2NC[C@@H]1C (stereo partly specified) | 10 nM | 16 nM |  | > 10000 nM
21 | CCC1c2cc3c(C(F)(F)F)cc(=O)[nH]c3cc2NC[C@@H]1C (stereo partly specified) | 7 nM | 8 nM | 2710 nM | 
22 | CC1c2cc3c(C(F)(F)F)cc(O)nc3cc2NC[C@H]1C (stereo partly specified) | 22 nM | 8 nM |  | > 10000 nM
